Assay results: US20210115040A1, “OGA INHIBITOR COMPOUNDS” (Janssen Pharmaceutica NV, priority 2018, published 2021)

Assays:
[1] = biological target: T1, recombinant human Meningioma Expressed Antigen 5 (MGEA5), also referred to as O-GlcNAcase (OGA) (Homo sapiens, UniProt O60502); experiment: OGA biochemical assay (inhibition of FM-GlcNAc hydrolysis, fluorescence); settings: FM-GlcNAc substrate; for IC50: 6 h at room temperature, read-out: Enzymatic hOGA, pIC50 (converted); for Emax: maximal effect, read-out: Enzymatic Emax (%)
T1 construct: Full length OGA enzyme was purchased at OriGene (cat #TP322411); purchased OriGene TP322411
T1 sequence (O60502 1-916): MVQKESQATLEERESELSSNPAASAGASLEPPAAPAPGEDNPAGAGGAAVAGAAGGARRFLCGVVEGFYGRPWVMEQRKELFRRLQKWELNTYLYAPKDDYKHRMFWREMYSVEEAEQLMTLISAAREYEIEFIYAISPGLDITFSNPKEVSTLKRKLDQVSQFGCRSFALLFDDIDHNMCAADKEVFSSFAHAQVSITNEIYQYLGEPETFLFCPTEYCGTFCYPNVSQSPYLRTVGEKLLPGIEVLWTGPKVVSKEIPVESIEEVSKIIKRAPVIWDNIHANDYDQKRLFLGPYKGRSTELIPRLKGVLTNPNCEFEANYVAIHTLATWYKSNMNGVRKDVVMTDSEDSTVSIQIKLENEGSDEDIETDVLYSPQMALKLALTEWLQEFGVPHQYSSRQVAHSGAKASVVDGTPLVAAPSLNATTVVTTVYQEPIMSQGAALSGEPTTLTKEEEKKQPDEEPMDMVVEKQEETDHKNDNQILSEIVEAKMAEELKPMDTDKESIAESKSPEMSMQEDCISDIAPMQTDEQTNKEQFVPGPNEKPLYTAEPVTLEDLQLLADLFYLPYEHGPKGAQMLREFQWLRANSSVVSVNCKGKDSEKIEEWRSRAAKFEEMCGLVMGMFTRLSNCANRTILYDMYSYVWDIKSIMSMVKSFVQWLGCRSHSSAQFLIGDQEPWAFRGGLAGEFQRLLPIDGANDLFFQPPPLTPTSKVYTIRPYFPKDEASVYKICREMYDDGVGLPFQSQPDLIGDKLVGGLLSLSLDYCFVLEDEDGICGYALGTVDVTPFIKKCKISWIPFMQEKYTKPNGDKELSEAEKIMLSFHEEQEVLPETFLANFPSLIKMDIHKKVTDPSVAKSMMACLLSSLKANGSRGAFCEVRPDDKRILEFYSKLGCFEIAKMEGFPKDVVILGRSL
How it was run: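 Full-length OGA (2 nM) pre-incubated 60 min at room temperature with compound, then FM-GlcNAc (100 uM final) hydrolysed 6 h at room temperature in 200 mM citrate/phosphate pH 7.2 with 0.005% Tween-20. Stopped with carbonate pH 11.0; fluorescein read at ex 485/em 538 nm. IC50 and Hill coefficient from curve fit between no-inhibitor and saturating-standard controls.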

[2] = biological target: T2, OGA (Homo sapiens, UniProt O60502); experiment: OGA cellular assay (ICC detection of O-GlcNAcylated proteins in HEK293 cells inducible for P301L mutant human Tau); format: cell-based; settings: for Emax: HEK293, HEK293 cells inducible for P301L mutant human Tau, maximum = Thiamet G 200 uM; for EC50: HEK293 cells inducible for P301L mutant human Tau, 6 hours incubation, read-out: Cellular hOGA, pEC50 (converted)
T2 construct: HEK293 cells inducible for P301L mutant human Tau (isoform 2N4R) were established at Janssen; endogenous in cells; host or cells: HEK293 cells inducible for P301L mutant human Tau (2N4R)
T2 sequence (O60502 1-916): T1 sequence (O60502 1-916)
How it was run: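 HEK293 cells inducible for P301L Tau (2N4R), seeded in low-glucose medium, treated with compound for 6 h at 0.2% DMSO. O-GlcNAc immunostained with CTD110.6 after PFA fixation; 488 nm intensity imaged, Hoechst nuclei counted for toxicity. IC50 by non-linear regression, 200 uM Thiamet G as maximum.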

For `Cc1cc(C[C@H]2CCCN(C(C)c3cnc4[nH]c(C)nc4c3)C2)cc(C)n1` (single isomer, unassigned) [Compound 6a], the IC50 [1] was 1580 nM, the Emax [1] was 89% and the melting point was 180.52 °C.

`Cc1cc(C[C@H]2CCN(C(C)c3cnc4[nH]c(C)nc4c3)C2)cc(C(F)(F)F)n1` (some centres unmarked) [Compound 104] gave an Emax [2] of 20%, an EC50 [2] of over 1000 nM and an IC50 [1] of 501 nM. It also gave an Emax [1] of 94%.

In the case of `Cc1cc(NCC2CCCN(C(C)c3ccc4sc(C)nc4n3)C2)cc(C)n1` (centres unmarked) [Compound 105], the Emax [2] is reported as 14%, the EC50 [2] is reported as over 1000 nM and the IC50 [1] is reported as 501 nM. The Emax [1] was 94%.

With `COc1cc(CN[C@H]2CCCN(C(C)c3ccc4sc(C)nc4n3)C2)cc(C)n1` (some centres unmarked) [Compound 107] the Emax [2] was 60%, the EC50 [2] was 794 nM and the IC50 [1] was 63.1 nM. It also gave an Emax [1] of 93%.

For `Cc1cc(NC[C@H]2CCCN(C(C)c3ccc4sc(C)nc4n3)C2)nc(C)n1` (some centres unmarked) [Compound 108], the Emax [2] was 84%, the EC50 [2] was 12.6 nM and the IC50 [1] was 7.94 nM. It also gave an Emax [1] of 101%.

With `COc1cc(NC[C@H]2CCCN(C(C)c3ccc4sc(C)nc4n3)C2)cc(C)n1` (some centres unmarked) [Compound 109] the Emax [2] was 89%, the EC50 [2] was 10 nM and the IC50 [1] was 6.31 nM. It also gave an Emax [1] of 100%.
